Patent publication US20140087945A1, “SUBSTITUTED 4-CYAN-3-(2,6-DIFLUOROPHENYL)-4-PHENYLBUTANOATES, METHOD FOR THE PRODUCTION THEREOF AND USE THEREOF AS HERBICIDES AND PLANT GROWTH REGULATORS” (Bayer Intellectual Property GmbH, priority 2011, published 2014)

Key:
[1] = system: a plurality of harmful plants; test: Herbicidal pre-emergence action, greenhouse pot test; format: in vivo; conditions: pre-emergence method; application rate of 320 g or less of active substance per hectare
Excerpt: Seeds of monocotyledonous and dicotyledonous weed plants and crop plants are placed in wood-fiber pots in sandy loam and covered with soil. The compounds (I) according to the invention, formulated in the form of wettable powders (WP), are then applied as aqueous suspension or emulsion at a water application rate of 600 l/ha (converted) with the addition of 0.2% of wetting agent to the surface of the covering soil. After the treatment, the pots are placed in a greenhouse and kept under good growth conditions for the test plants. After about 3 weeks, the effect of the preparations is scored visually in comparison with untreated controls as percentages. For example, 100% activity=the plants have died, 50% herbicidal activity or damage=the plants have been reduced by 50% or the plant mass has been reduced by 50%, 0% activity=like control plants.

[2] = system: a plurality of harmful plants; test: Herbicidal post-emergence action, greenhouse pot test; format: in vivo; conditions: post-emergence method
Protocol: Seeds of monocotyledonous and dicotyledonous weed and crop plants are placed in sandy loam in wood-fiber pots, covered with soil and cultivated in a greenhouse under good growth conditions. 2 to 3 weeks after sowing, the test plants are treated at the one-leaf stage, where the compounds (I) according to the invention, formulated in the form of wettable powders (WP), are applied by spraying as aqueous suspension or emulsion at a water application rate of 600 l/ha (converted) with the addition of 0.2% of wetting agent to the green parts of the plants. After the test plants have been kept in the greenhouse under optimum growth conditions for about 3 weeks, the activity of the preparations is rated visually in comparison to untreated controls in percent (%): For example, 100% activity=the plants have died, 50% herbicidal activity or damage=the plants have been reduced by 50% or the plant mass has been reduced by 50%, 0% activity=like control plants.

SMILES	herbicidal activity against a plurality of harmful plants [1]	herbicidal activity against a plurality of harmful plants [2]
COC(=O)CC(c1c(F)cccc1F)C(C#N)c1ccc(F)cc1 (mixture of isomers) [Example 1-3]	good herbicidal activity	good herbicidal activity
COC(=O)CC(c1c(F)cccc1F)C(C#N)c1ccc(Cl)cc1 (mixture of isomers) [Example 1-6]	good herbicidal activity	good herbicidal activity
COC(=O)CC(c1c(F)cccc1F)C(C#N)c1cc(F)cc(F)c1 (mixture of isomers) [Example 1-12]	good herbicidal activity	good herbicidal activity
COC(=O)CC(c1c(F)cccc1F)C(C#N)c1ccc(F)c(Cl)c1 (mixture of isomers) [Example 1-15]	good herbicidal activity	good herbicidal activity
COC(=O)CC(c1c(F)cccc1F)C(C#N)c1ccc(Cl)c(Cl)c1 (mixture of isomers) [Example 1-16]	good herbicidal activity	good herbicidal activity
COC(=O)CC(c1c(F)cccc1F)C(C#N)c1cccc(I)c1 (mixture of isomers) [Example 1-19]	good herbicidal activity	good herbicidal activity
COC(=O)CC(c1c(F)cccc1F)C(C#N)c1ccccc1OC (mixture of isomers) [Example 1-24]	good herbicidal activity	good herbicidal activity
COC(=O)CC(c1c(F)cccc1F)C(C#N)c1ccc(OC)cc1 (mixture of isomers) [Example 1-26]	good herbicidal activity	good herbicidal activity
COC(=O)CC(c1c(F)cccc1F)C(C#N)c1ccc(OC)c(OC)c1 (mixture of isomers) [Example 1-27]	good herbicidal activity	good herbicidal activity
COC(=O)CC(c1c(F)cccc1F)C(C#N)c1ccc(OC)c(F)c1 (mixture of isomers) [Example 1-28]	good herbicidal activity	good herbicidal activity
COC(=O)CC(c1c(F)cccc1F)C(C#N)c1ccc(C(F)(F)F)c(F)c1 (mixture of isomers) [Example 1-29]	good herbicidal activity	good herbicidal activity
COC(=O)CC(c1c(F)cccc1F)C(C#N)c1cc(F)cc(C(F)(F)F)c1 (mixture of isomers) [Example 1-30]	good herbicidal activity	good herbicidal activity
N#CC(c1cc(F)cc(C(F)(F)F)c1)C(CC(=O)O)c1c(F)cccc1F (mixture of isomers) [Example 1-228]	good herbicidal activity	good herbicidal activity
COC(=O)CC(c1c(F)cccc1F)C(C#N)c1ccc(F)c(Br)c1 (mixture of isomers) [Example 1-232]	good herbicidal activity	good herbicidal activity
COC(=O)CC(c1c(F)cccc1F)C(C#N)c1ccc(F)c(C#N)c1 (mixture of isomers) [Example 1-233]	good herbicidal activity	good herbicidal activity
COC(=O)CC(c1c(F)cccc1F)C(C#N)c1ccc2ccccc2c1 (mixture of isomers) [Example 1-235]	good herbicidal activity	
COC(=O)CC(c1c(F)cccc1F)C(C#N)c1ccc(F)c(F)c1 (stereo not drawn) [Example 1-11, methyl 4-cyano-3-(2,6-difluorophenyl)-4-(3,4-difluorophenyl)butanoate]	good herbicidal activity	
N#CC(c1ccc(F)c(F)c1)C(CC(=O)O)c1c(F)cccc1F (stereo not drawn) [Example 1-106, 4-Cyano-3-(2,6-difluorophenyl)-4-(3,4-difluorophenyl)butanoic acid]	good herbicidal activity	good herbicidal activity
COC(=O)CC(c1c(F)cccc1F)C(C#N)c1ccc(F)c(F)c1 (stereo not drawn) [Example 1-230, methyl erythro-4-cyano-3-(2,6-difluorophenyl)-4-(3,4-difluorophenyl)butanoate]	good herbicidal activity	good herbicidal activity
COC(=O)CC(c1c(F)cccc1F)C(C#N)c1ccc(F)c(F)c1 (stereo not drawn) [Example 1-231, methyl threo-4-cyano-3-(2,6-difluorophenyl)-4-(3,4-difluorophenyl)-butanoate]	good herbicidal activity	
COC(=O)C[C@@H](c1c(F)cccc1F)[C@@H](C#N)c1ccc(F)c(F)c1 [Example 2-11, Methyl (3R,4R)-4-cyano-3-(2,6-difluorophenyl)-4-(3,4-difluorophenyl)-butanoate]	good herbicidal activity	good herbicidal activity
COC(=O)C[C@@H](c1c(F)cccc1F)[C@@H](C#N)c1ccc(F)c(Cl)c1 [Example 2-15]	good herbicidal activity	
CCOC(=O)C[C@@H](c1c(F)cccc1F)[C@@H](C#N)c1ccc(F)c(F)c1 [Example 2-107, Ethyl (3R,4R)-4-cyano-3-(2,6-difluorophenyl)-4-(3,4-difluorophenyl)-butanoate]	good herbicidal activity	good herbicidal activity
COC(=O)C[C@@H](c1c(F)cccc1F)[C@@H](C#N)c1ccc(F)c(Br)c1 [Example 2-229]	good herbicidal activity	good herbicidal activity
COC(=O)C[C@@H](c1c(F)cccc1F)[C@@H](C#N)c1ccc(F)c(C#N)c1 [Example 2-230]		good herbicidal activity
